Measurements as given in the NIST ThermoML archive (doi:10.1016/j.fluid.2017.05.012).
Numbers after ± are expanded uncertainties. Each block holds one molecule with its values, some of them ahead of it.

Settings: Liquid, Ebulliometric method (Recirculating still)

- vapor or sublimation pressure (374.8 K): 101 ± 1 kPa
SMILES: CCCOC(C)=O [propyl ethanoate]

- vapor or sublimation pressure (372.9 K): 101 ± 1 kPa
SMILES: O [water]

- vapor or sublimation pressure (370.2 K): 101 ± 1 kPa
SMILES: CCCO [propan-1-ol]
